Experimental data as given in patent US6573076B1, “Gene, group of genes, and novel β-glucosidase” (Ajinomoto Co., Inc., priority 1997, dated 2003).
Where two headings read alike, the source gives them in different places.

Columns and labels:
β-glucosidase (G3ase) [1] = molecular target: T1, β-glucosidase (G3ase) (Komagataeibacter sucrofermentans, UniProt O24749); assay: Inhibition constants of G3ase inhibitors; assay type: biochemical, Acetobacter xylinum subsp. sucrofermentans BPR 2001
β-glucosidase (G3ase) [2] = molecular target: T1, β-glucosidase (G3ase); assay: Effect of metal ions and chemical agents on β-glucosidase (G3ase) activity; assay type: biochemical, Acetobacter xylinum subsp. sucrofermentans BPR 2001; settings: for activity at 1000 µM: read-out: Relative activity (%)
Procedure: After reaction at 30° C. for 2 hr, a reaction solution (300 μl) of a glucose-measuring kit (Glucose CII test Wako: Wako Pure Chemical Industries, Ltd.) was added to the mixture, and reacted for 15 min at a room temperature, followed by the determination of an amount of glucose based on absorbance at 505 nm.

β-glucosidase (G3ase) [3] = molecular target: T1, β-glucosidase (G3ase); assay: Reactivity of G3ase with cellulosic substrates (glucose produced); assay type: biochemical, Acetobacter xylinum subsp. sucrofermentans BPR 2001
β-glucosidase (G3ase) [4] = molecular target: T1, β-glucosidase (G3ase); assay type: biochemical, Acetobacter xylinum subsp. sucrofermentans BPR 2001
[5] = substrate: OC[C@H]1O[C@@H](O[C@H]2[C@H](O)[C@@H](O)[C@H](O[C@H]3[C@H](O)[C@@H](O)C(O)O[C@@H]3CO)O[C@@H]2CO)[C@H](O)[C@@H](O)[C@@H]1O; assay: purified protein, by the assay type; settings: other: substrate of G3ase
[6] = substrate: OC[C@H]1O[C@@H](O[C@H]2[C@H](O)[C@@H](O)[C@H](O[C@H]3[C@H](O)[C@@H](O)[C@H](O[C@H]4[C@H](O)[C@@H](O)[C@H](O[C@H]5[C@H](O)[C@@H](O)[C@H](O[C@H]6[C@H](O)[C@@H](O)C(O)O[C@@H]6CO)O[C@@H]5CO)O[C@@H]4CO)O[C@@H]3CO)O[C@@H]2CO)[C@H](O)[C@@H](O)[C@@H]1O; assay: purified protein, by the assay type; settings: other: substrate of G3ase
[7] = substrate: OC[C@H]1O[C@@H](O[C@H]2[C@H](O)[C@@H](O)[C@H](O[C@H]3[C@H](O)[C@@H](O)[C@H](O[C@H]4[C@H](O)[C@@H](O)C(O)O[C@@H]4CO)O[C@@H]3CO)O[C@@H]2CO)[C@H](O)[C@@H](O)[C@@H]1O; assay: purified protein, by the assay type; settings: other: substrate of G3ase
[8] = substrate: OC[C@H]1O[C@@H](O[C@H]2[C@H](O)[C@@H](O)[C@H](O[C@H]3[C@H](O)[C@@H](O)[C@H](O[C@H]4[C@H](O)[C@@H](O)[C@H](O[C@H]5[C@H](O)[C@@H](O)C(O)O[C@@H]5CO)O[C@@H]4CO)O[C@@H]3CO)O[C@@H]2CO)[C@H](O)[C@@H](O)[C@@H]1O; assay: purified protein, by the assay type; assay type: biochemical, Acetobacter xylinum subsp. sucrofermentans BPR 2001; settings: other: substrate of G3ase
[9] = compound 1 mM, non-added sample = 100%
[10] = metal ions and chemical agents 1 mM

O[C@H]1[C@H](O)[C@@H](O)[C@@H]2O[C@@H]2[C@@H]1O (relative stereo) [Conduritol-βepoxide]
Ki (β-glucosidase (G3ase) [1]): 700 µM
Type of inhibition (β-glucosidase (G3ase) [1]): Competitive
Type of inhibition (β-glucosidase (G3ase) [1]; listed as conduritol-β epoxide): competitively inhibited

OCCS [2ME, 2-mercaptoethanol]
Relative activity (%) (β-glucosidase (G3ase) [2]; [9]): 106%
Effect on β-glucosidase (G3ase) activity (in words) (β-glucosidase (G3ase) [2]; [10]): did not affect it adversely

[Ca+2].[Cl-].[Cl-] [CaCl2]
Relative activity (%) (β-glucosidase (G3ase) [2]; [9]): 100%

O=S(=O)([O-])[O-].[Cu+2] [CuSO4]
Relative activity (%) (β-glucosidase (G3ase) [2]; [9]): 115.7%

O=C(O)CN(CCN(CC(=O)O)CC(=O)O)CC(=O)O [EDTA, ethylene diamine tetra acetate]
Effect on β-glucosidase (G3ase) activity (in words) (β-glucosidase (G3ase) [2]): did not affect it adversely
Relative activity (%) (β-glucosidase (G3ase) [2]): 100%

O=S(=O)([O-])[O-].[Fe+2] [FeSO4]
Relative activity (%) (β-glucosidase (G3ase) [2]; [9]): 91.6%

OC[C@H]1O[C@@H](O[C@H]2[C@H](O)[C@@H](O)[C@H](O[C@H]3[C@H](O)[C@@H](O)C(O)O[C@@H]3CO)O[C@@H]2CO)[C@H](O)[C@@H](O)[C@@H]1O (some centres unmarked) [G3, cellotriose]
percent ratio of produced glucose against total substrate added (β-glucosidase (G3ase) [3]; reaction time 2 hr): 13.1%
percent ratio of produced glucose against total substrate added (β-glucosidase (G3ase) [3]; reaction time 24 hr): 17.5%

OC[C@H]1O[C@@H](O[C@H]2[C@H](O)[C@@H](O)[C@H](O[C@H]3[C@H](O)[C@@H](O)[C@H](O[C@H]4[C@H](O)[C@@H](O)[C@H](O[C@H]5[C@H](O)[C@@H](O)[C@H](O[C@H]6[C@H](O)[C@@H](O)C(O)O[C@@H]6CO)O[C@@H]5CO)O[C@@H]4CO)O[C@@H]3CO)O[C@@H]2CO)[C@H](O)[C@@H](O)[C@@H]1O (some centres unmarked) [G6, cellohexaose]
percent ratio of produced glucose against total substrate added (β-glucosidase (G3ase) [3]; reaction time 2 hr): 24.3%
percent ratio of produced glucose against total substrate added (β-glucosidase (G3ase) [3]; reaction time 24 hr): 28.2%

O=C1O[C@H](CO)[C@@H](O)[C@H](O)[C@H]1O [Glucono-δ-lactone]
Ki (β-glucosidase (G3ase) [1]): 760 µM
Type of inhibition (β-glucosidase (G3ase) [1]): Competitive
Type of inhibition (β-glucosidase (G3ase) [1]; listed as glucon-o-δ-lactone): competitively inhibited

[Cl][Hg][Cl] [HgCl2]
Relative activity (%) (β-glucosidase (G3ase) [2]; [9]): 85.5%

O=C(O)CI [IAA, iodo acetate]
Relative activity (%) (β-glucosidase (G3ase) [2]; [9]): 126.5%
Effect on β-glucosidase (G3ase) activity (in words) (β-glucosidase (G3ase) [2]; [10]): did not affect it adversely

O=S(=O)([O-])[O-].[Mg+2] [MgSO4]
Relative activity (%) (β-glucosidase (G3ase) [2]; [9]): 95.2%

O=S(=O)([O-])[O-].[Mn+2] [MnSO4]
Relative activity (%) (β-glucosidase (G3ase) [2]; [9]): 114.5%

O=C1CCC(=O)N1Br [NBS, N-bromosuccinimide]
activity at 1000 µM (β-glucosidase (G3ase) [2]; [9]): 0%
Effect on β-glucosidase (G3ase) activity (in words) (β-glucosidase (G3ase) [2]; [10]): completely inactivated

CCCCCCCCCCCCOS(=O)(=O)[O-].[Na+] [SDS, sodium dodecyl sulfate]
activity at 1000 µM (β-glucosidase (G3ase) [2]; [9]): 31.3%

O=S(=O)([O-])[O-].[Zn+2] [ZnSO4]
Relative activity (%) (β-glucosidase (G3ase) [2]; [9]): 90.4%

cellobiose [G2]
degrading activity of G3ase compared to the other cellooligosaccharides (in words) (β-glucosidase (G3ase) [4]): very low
ko (molecular activity) (β-glucosidase (G3ase) [4]; substrate of G3ase): 3.8 s⁻¹
percent ratio of produced glucose against total substrate added (β-glucosidase (G3ase) [3]; reaction time 2 hr): 0.4%
percent ratio of produced glucose against total substrate added (β-glucosidase (G3ase) [3]; reaction time 24 hr): 5.2%

B1: β-glucosidase (G3ase) (Komagataeibacter sucrofermentans) (protein)
chain: RHAHDGGGDQADARARQVLASMSLEDKMSLLFSVDGGGFNGSVAPPGGLGSAAYLRAPQGSGLPDLQISDAGLGVRNPAHIRRNGEAVSLPSGQSTASTWDMDMARQAGVMIGREAWQSGFNILLGGGADLTRDPRGGRNFEYAGEDPLQTGRMVGSTIAGVQSQHVISTLKHYAMNDLETSRMTMSADIDPVAMRESDLLGFEIALETGHPGAVMCSYNRVNDLYACENPYLLNKTLKQDWHYPGFVMSDWGATHSSARAALAGLDQESAGDHTDARPYFRTLLAADVKAGRVPEARINDMAERVVRALFAAGLVDHPAQRGPLDVVTDTLVAQKDEEEGAVLLRNQGNILPLSPTARIAVIGGHADAGVISGGGSSQVDPIGGEAVKGPGKKEWPGDPVYFPSSPLKAMQAEAPGARITYDPGTSIASAVRAARAADVVVVYATQFTFEGMDAPSMHLDDNADALITAVAAANPRTVVVMETGDPVLMPWNSSVAGVLEAWFPGSGGGPAIARLLFGKVAPSGHLTMTFPQAESQLAHPDIAGVTADNVFEMQFHTDQELVYDEGSDVGYRWFDRNHFKPLYPFGYGLTYTTFSTDGLKVTERHGQVTATFNVHNTGTRAGVDVPQVYVGLPDGGARRLAGWQRISLAPGESRQVSVQLEPRLLAHFDGKHDRWSVPSGTFRVWLASCATDDSQQTTMHLHGRTMAP
Km [5]: 3730 µM
kcat [5]: 29.8 s⁻¹
Km [6]: 1310 µM
kcat [6]: 31.0 s⁻¹
Km [7]: 2100 µM
kcat [7]: 38.9 s⁻¹
Km [8]: 1490 µM
kcat [8]: 32.1 s⁻¹
